Test results as given in the supplement of paper PMC10307832.

Compound: CC1=C(C(=NN1)C)CC2=C(C3=C(S2)N(C(=O)N(C3=O)C)CC(C)C)C(=O)N4C[C@@H](CO4)O + C[C@]1(O)C[C@@H](c2nc(-c3ccc4ccc(-c5ccccc5)nc4c3)c3c(N)nccn32)C1 [Linsitinib] (partner 1 µM)
Assay: relative viability (nuclei count vs DMSO), 5 days (fraction); higher = more cells survive
Settings: first compound 0.0025 µM
Procedure, shortened: (§1)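 Relative viability is defined as nuclei in treated wells over nuclei in vehicle wells. Duplicate plates were run and medians reported. Lung cancer cell lines in 1536-well plates were dosed by pin tool one day after seeding, with one drug or with a fixed anchor-drug dose plus five library-drug doses (not always all listed) in √10 steps, and nuclei were counted after 5 days.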

Q: LU99A was tested. Which relative viability did it give?
A: 0.592

Q: With BEN as the cell line, how does the relative viability read?
A: 0.932

Q: With HARA as the cell line, how does the relative viability read?
A: 1.08

Q: HCC-78 was tested. Which relative viability did it give?
A: 0.483

Q: Which relative viability does the source give for NCI-H322M here?
A: 0.92

Q: LCLC-97TM1 was tested. Which relative viability did it give?
A: 0.183

Q: Which relative viability does the source give for NCI-H2009 here?
A: 1.24

Q: A-427 was tested. Which relative viability did it give?
A: 1.09

Q: How did the relative viability turn out when NCI-H661 was run?
A: 0.593

Q: NCI-H1734 was tested. Which relative viability did it give?
A: 0.925

Q: With NCI-H460 as the cell line, how does the relative viability read?
A: 0.736

Q: For NCI-H2347, which relative viability is on record?
A: 0.992

Q: For SK-LU-1, which relative viability is on record?
A: 0.86

Q: Which relative viability does the source give for 201T here?
A: 1.06

Q: Which relative viability does the source give for NCI-H1915 here?
A: 1.12

Same assay, conditions: first compound 0.007906 µM

Q: Which relative viability does the source give for LU99A here?
A: 0.542

Q: How did the relative viability turn out when BEN was run?
A: 0.79

Q: For HARA, which relative viability is on record?
A: 1.01

Q: With HCC-78 as the cell line, how does the relative viability read?
A: 0.548

Q: For NCI-H322M, which relative viability is on record?
A: 0.975

Q: How did the relative viability turn out when LCLC-97TM1 was run?
A: 0.206

Q: Which relative viability does the source give for NCI-H2009 here?
A: 1.22

Q: How did the relative viability turn out when A-427 was run?
A: 1.22

Q: Which relative viability does the source give for NCI-H661 here?
A: 0.636

Q: How did the relative viability turn out when NCI-H1734 was run?
A: 1.05

Q: How did the relative viability turn out when NCI-H460 was run?
A: 0.577

Q: Which relative viability does the source give for NCI-H2347 here?
A: 0.944

Q: For SK-LU-1, which relative viability is on record?
A: 0.712

Q: How did the relative viability turn out when 201T was run?
A: 0.988

Q: How did the relative viability turn out when NCI-H1915 was run?
A: 1.13

Same assay, conditions: first compound 0.025 µM

Q: With LU99A as the cell line, how does the relative viability read?
A: 0.522

Q: With BEN as the cell line, how does the relative viability read?
A: 0.762

Q: HARA was tested. Which relative viability did it give?
A: 0.919

Q: HCC-78 was tested. Which relative viability did it give?
A: 0.587

Q: NCI-H322M was tested. Which relative viability did it give?
A: 0.942

Q: For LCLC-97TM1, which relative viability is on record?
A: 0.205

Q: With NCI-H2009 as the cell line, how does the relative viability read?
A: 1.19

Q: Which relative viability does the source give for A-427 here?
A: 1.08

Q: With NCI-H661 as the cell line, how does the relative viability read?
A: 0.603

Q: For NCI-H1734, which relative viability is on record?
A: 0.861

Q: How did the relative viability turn out when NCI-H460 was run?
A: 0.789

Q: How did the relative viability turn out when NCI-H2347 was run?
A: 0.956

Q: How did the relative viability turn out when SK-LU-1 was run?
A: 0.711

Q: 201T was tested. Which relative viability did it give?
A: 1.03

Q: With NCI-H1915 as the cell line, how does the relative viability read?
A: 1.08

Same assay, conditions: first compound 0.07906 µM

Q: How did the relative viability turn out when LU99A was run?
A: 0.583

Q: BEN was tested. Which relative viability did it give?
A: 0.663

Q: How did the relative viability turn out when HARA was run?
A: 0.924

Q: For HCC-78, which relative viability is on record?
A: 0.505

Q: NCI-H322M was tested. Which relative viability did it give?
A: 0.899

Q: With LCLC-97TM1 as the cell line, how does the relative viability read?
A: 0.163

Q: Which relative viability does the source give for NCI-H2009 here?
A: 1.27

Q: With A-427 as the cell line, how does the relative viability read?
A: 1.08

Q: NCI-H661 was tested. Which relative viability did it give?
A: 0.762

Q: For NCI-H1734, which relative viability is on record?
A: 0.947

Q: Which relative viability does the source give for NCI-H460 here?
A: 1.09

Q: Which relative viability does the source give for NCI-H2347 here?
A: 0.894

Q: Which relative viability does the source give for SK-LU-1 here?
A: 0.774

Q: 201T was tested. Which relative viability did it give?
A: 1.1

Q: Which relative viability does the source give for NCI-H1915 here?
A: 1.05

Same assay, conditions: first compound 0.25 µM

Q: Which relative viability does the source give for LU99A here?
A: 0.567

Q: How did the relative viability turn out when BEN was run?
A: 0.862

Q: For HARA, which relative viability is on record?
A: 1.01

Q: Which relative viability does the source give for HCC-78 here?
A: 0.377

Q: With NCI-H322M as the cell line, how does the relative viability read?
A: 0.722

Q: LCLC-97TM1 was tested. Which relative viability did it give?
A: 0.159

Q: How did the relative viability turn out when NCI-H2009 was run?
A: 1.26

Q: With A-427 as the cell line, how does the relative viability read?
A: 1.14

Q: For NCI-H661, which relative viability is on record?
A: 0.463

Q: Which relative viability does the source give for NCI-H1734 here?
A: 0.881

Q: With NCI-H460 as the cell line, how does the relative viability read?
A: 1.19

Q: For NCI-H2347, which relative viability is on record?
A: 1.03

Q: For SK-LU-1, which relative viability is on record?
A: 0.731

Q: For 201T, which relative viability is on record?
A: 1.06

Q: For NCI-H1915, which relative viability is on record?
A: 1.17

Compound: CC1=C(C(=NN1)C)CC2=C(C3=C(S2)N(C(=O)N(C3=O)C)CC(C)C)C(=O)N4C[C@@H](CO4)O + C[C@@H](Oc1cc(-c2cnn(C3CCNCC3)c2)cnc1N)c1c(Cl)ccc(F)c1Cl [Crizotinib] (partner 1 µM)
Assay: as above
Settings: first compound 0.0025 µM
Procedure, shortened: as §1

Q: LU99A was tested. Which relative viability did it give?
A: 0.542

Q: For BEN, which relative viability is on record?
A: 0.912

Q: With HARA as the cell line, how does the relative viability read?
A: 1.09

Q: With HCC-78 as the cell line, how does the relative viability read?
A: 0.444

Q: For NCI-H322M, which relative viability is on record?
A: 1.03

Q: For LCLC-97TM1, which relative viability is on record?
A: 0.448

Q: With NCI-H2009 as the cell line, how does the relative viability read?
A: 0.966

Q: Which relative viability does the source give for A-427 here?
A: 0.904

Q: How did the relative viability turn out when NCI-H1734 was run?
A: 0.773

Q: How did the relative viability turn out when NCI-H460 was run?
A: 0.865

Q: How did the relative viability turn out when NCI-H2347 was run?
A: 0.834

Q: Which relative viability does the source give for SK-LU-1 here?
A: 0.654

Q: For 201T, which relative viability is on record?
A: 1.06

Q: Which relative viability does the source give for NCI-H1915 here?
A: 0.959

Same assay, conditions: first compound 0.007906 µM

Q: For LU99A, which relative viability is on record?
A: 0.592

Q: BEN was tested. Which relative viability did it give?
A: 0.719

Q: How did the relative viability turn out when HARA was run?
A: 1.19

Q: With HCC-78 as the cell line, how does the relative viability read?
A: 0.316

Q: With NCI-H322M as the cell line, how does the relative viability read?
A: 1.03

Q: With LCLC-97TM1 as the cell line, how does the relative viability read?
A: 0.436

Q: NCI-H2009 was tested. Which relative viability did it give?
A: 1.03

Q: A-427 was tested. Which relative viability did it give?
A: 0.953

Q: Which relative viability does the source give for NCI-H661 here?
A: 0.965

Q: How did the relative viability turn out when NCI-H1734 was run?
A: 0.517

Q: With NCI-H460 as the cell line, how does the relative viability read?
A: 1.1

Q: NCI-H2347 was tested. Which relative viability did it give?
A: 0.813

Q: For SK-LU-1, which relative viability is on record?
A: 0.6

Q: 201T was tested. Which relative viability did it give?
A: 0.978

Q: Which relative viability does the source give for NCI-H1915 here?
A: 0.92

Same assay, conditions: first compound 0.025 µM

Q: How did the relative viability turn out when LU99A was run?
A: 0.533

Q: BEN was tested. Which relative viability did it give?
A: 0.75

Q: How did the relative viability turn out when HARA was run?
A: 0.915

Q: With HCC-78 as the cell line, how does the relative viability read?
A: 0.342

Q: Which relative viability does the source give for NCI-H322M here?
A: 0.758

Q: With LCLC-97TM1 as the cell line, how does the relative viability read?
A: 0.371

Q: Which relative viability does the source give for NCI-H2009 here?
A: 1.06

Q: A-427 was tested. Which relative viability did it give?
A: 0.879

Q: With NCI-H661 as the cell line, how does the relative viability read?
A: 0.938

Q: NCI-H1734 was tested. Which relative viability did it give?
A: 0.641

Q: How did the relative viability turn out when NCI-H460 was run?
A: 0.848

Q: With NCI-H2347 as the cell line, how does the relative viability read?
A: 0.801

Q: SK-LU-1 was tested. Which relative viability did it give?
A: 0.653

Q: For 201T, which relative viability is on record?
A: 1.03

Q: How did the relative viability turn out when NCI-H1915 was run?
A: 0.836

Same assay, conditions: first compound 0.07906 µM

Q: For LU99A, which relative viability is on record?
A: 0.566

Q: With BEN as the cell line, how does the relative viability read?
A: 0.604

Q: With HARA as the cell line, how does the relative viability read?
A: 0.987

Q: HCC-78 was tested. Which relative viability did it give?
A: 0.371

Q: Which relative viability does the source give for NCI-H322M here?
A: 0.927

Q: Which relative viability does the source give for LCLC-97TM1 here?
A: 0.361

Q: How did the relative viability turn out when NCI-H2009 was run?
A: 1.09

Q: Which relative viability does the source give for A-427 here?
A: 0.917

Q: Which relative viability does the source give for NCI-H661 here?
A: 0.988

Q: With NCI-H1734 as the cell line, how does the relative viability read?
A: 0.614

Q: NCI-H460 was tested. Which relative viability did it give?
A: 1.12

Q: NCI-H2347 was tested. Which relative viability did it give?
A: 0.621

Q: With SK-LU-1 as the cell line, how does the relative viability read?
A: 0.693

Q: For 201T, which relative viability is on record?
A: 1.06

Q: NCI-H1915 was tested. Which relative viability did it give?
A: 0.884

Same assay, conditions: first compound 0.25 µM

Q: Which relative viability does the source give for LU99A here?
A: 0.648

Q: For BEN, which relative viability is on record?
A: 0.847

Q: With HARA as the cell line, how does the relative viability read?
A: 1.04

Q: HCC-78 was tested. Which relative viability did it give?
A: 0.322

Q: For NCI-H322M, which relative viability is on record?
A: 0.998

Q: How did the relative viability turn out when LCLC-97TM1 was run?
A: 0.692

Q: Which relative viability does the source give for NCI-H2009 here?
A: 1.11

Q: A-427 was tested. Which relative viability did it give?
A: 1.13

Q: How did the relative viability turn out when NCI-H661 was run?
A: 1.07

Q: For NCI-H1734, which relative viability is on record?
A: 0.562

Q: For NCI-H460, which relative viability is on record?
A: 0.948

Q: How did the relative viability turn out when NCI-H2347 was run?
A: 0.875

Q: For SK-LU-1, which relative viability is on record?
A: 0.643

Q: Which relative viability does the source give for 201T here?
A: 1.05

Q: For NCI-H1915, which relative viability is on record?
A: 1.01
